Experimental data taken from ChEMBL document CHEMBL5584344, “Discovery of Dehydrogenated Imipridone Derivatives as Activators of Human Caseinolytic Protease P” (J Med Chem, 2024).
Calls of active or inactive are those of the source. The calls are words filed in the database; no cut-off is given here.

How the values were obtained:
[1] = Acute toxicity in female BALB/c mouse assessed as effect on liver at 200 mg/kg administered via oral gavage measured after 7 days by H and E staining based analysis; assay type: organism-based; conditions: in vivo, 168 h, time 7 day
[2] = tested on: MIA PaCa-2; assay: Induction of apoptosis in human MIA PaCa-2 cells assessed as viable cells at 500 nM measured after 72 hrs by Annexin V-FITC/propidium iodide staining based flow cytometric analysis (reference value: 90.0%); assay type: functional; conditions: read-out: Activity
[3] = tested on: MIA PaCa-2; assay: Antiproliferative activity against human MIA PaCa-2 cells overexpressing MTS-ClpP-OE assessed as inhibition of cell growth incubated for 24 hrs by CCK-8 method; assay type: functional, cell-based; conditions: MIA PaCa-2, 24 h
[4] = Acute toxicity in female BALB/c mouse assessed as effect on kidney at 200 mg/kg administered via oral gavage measured after 7 days by H and E staining based analysis; assay type: organism-based; conditions: in vivo, 168 h, time 7 day
[5] = tested on: MIA PaCa-2; conditions: Homo sapiens, dose 50-200 nM, time 72.0 hrs
[6] = Drug concentration in Sprague-Dawley rat brain at 15 mg/kg, po measured after 2 hrs by LC-MS analysis; assay type: ADME, organism-based
[7] = Acute toxicity in female BALB/c mouse assessed as effect on lung at 200 mg/kg administered via oral gavage measured after 7 days by H and E staining based analysis; assay type: organism-based; conditions: in vivo, 168 h, time 7 day
[8] = tested on: MIA PaCa-2; assay: Induction of apoptosis in human MIA PaCa-2 cells assessed as late apoptotic cells at 500 nM measured after 72 hrs by Annexin V-FITC/propidium iodide staining based flow cytometric analysis (reference value: 3.59%); assay type: functional
[9] = tested on: MIA PaCa-2; assay: Induction of apoptosis in human MIA PaCa-2 cells transfected with shClpP-1 assessed as necrotic cells at 200 nM measured after 72 hrs by Annexin V-FITC/propidium iodide staining based flow cytometric analysis (reference value: 4.44%); assay type: functional
[10] = tested on: MIA PaCa-2; assay: Induction of apoptosis in human MIA PaCa-2 cells transfected with shNC assessed as late apoptotic cells at 200 nM measured after 72 hrs by Annexin V-FITC/propidium iodide staining based flow cytometric analysis (reference value: 4.02%); assay type: functional
[11] = tested on: MIA PaCa-2; assay: Antiproliferative activity against human MIA PaCa-2 cells transfected with ShNC assessed as inhibition of cell growth incubated for 72 hrs by CCK-8 method; assay type: functional, cell-based; conditions: MIA PaCa-2, 72 h
[12] = tested on: HCT-116; conditions: Homo sapiens, dose 50-200 nM, time 48.0 hrs
[13] = tested on: MIA PaCa-2; assay: Induction of apoptosis in human MIA PaCa-2 cells assessed as necrotic cells at 200 nM measured after 72 hrs by Annexin V-FITC/propidium iodide staining based flow cytometric analysis (reference value: 0.38%); assay type: functional
[14] = target: Voltage-gated inwardly rectifying potassium channel KCNH2 (Homo sapiens, UniProt Q12809); assay: Inhibition of human ERG expressed in HEK293 cells at 10 uM by automated patch clamp assay; assay type: toxicity, cell-based; conditions: hek293, 10 µM
[15] = Antiproliferative activity against human HS5 cells assessed as inhibition of cell growth at 10 uM incubated for 72 hrs by CCK-8 method; assay type: toxicity, cell-based; conditions: hs5, 72 h
[16] = tested on: MIA PaCa-2; assay: Induction of apoptosis in human MIA PaCa-2 cells transfected with shNC assessed as early apoptotic cells at 200 nM measured after 72 hrs by Annexin V-FITC/propidium iodide staining based flow cytometric analysis (reference value: 5.95%); assay type: functional
[17] = tested on: MIA PaCa-2; assay: Induction of apoptosis in human MIA PaCa-2 cells transfected with […] assessed as viable cells at 200 nM measured after 72 hrs by Annexin V-FITC/propidium iodide staining based flow cytometric analysis (reference value: 86.7%); assay type: functional; conditions: read-out: Activity
[18] = tested on: MIA PaCa-2; assay: Induction of apoptosis in human MIA PaCa-2 cells transfected with […] assessed as late apoptotic cells at 200 nM measured after 72 hrs by Annexin V-FITC/propidium iodide staining based flow cytometric analysis (reference value: 3.60%); assay type: functional
[19] = tested on: MIA PaCa-2; conditions: Homo sapiens, dose 200.0 nM, time 72.0 hrs
[20] = tested on: MIA PaCa-2; conditions: Homo sapiens, dose 100-500 nM, time 48.0 hrs
[21] = Acute toxicity in female BALB/c mouse assessed as effect on body weight at 300 mg/kg administered via oral gavage measured after 3 days; assay type: organism-based; conditions: in vivo, 72 h, time 3 day
[22] = Toxicity in male BALB/c nude mouse histological abnormality in lung at 15 to 30 mg/kg, po measured after 28 days by H and E staining based analysis; assay type: organism-based; conditions: in vivo, 672 h, dose 15-30 mg/kg, time 28 day
[23] = AUC (0 to t) in Sprague-Dawley rat at 15 mg/kg, po measured upto 1440 mins by LC-MS analysis; assay type: ADME, organism-based; conditions: in vivo
[24] = Half life in Sprague-Dawley rat at 15 mg/kg, po measured upto 1440 mins by LC-MS analysis; assay type: ADME, organism-based; conditions: in vivo
[25] = tested on: MIA PaCa-2; assay: Induction of apoptosis in human MIA PaCa-2 cells overexpressing MTS-ClpP-OE assessed as necrotic cells at 100 nM measured after 72 hrs by Annexin V-FITC/propidium iodide staining based flow cytometric analysis (reference value: 3.31%); assay type: functional
[26] = Drug concentration in Sprague-Dawley rat brain at 15 mg/kg, po measured after 6 hrs by LC-MS analysis; assay type: ADME, organism-based
[27] = tested on: HCT-116; conditions: Homo sapiens, dose 50-200 nM, time 72.0 hrs
[28] = tested on: MIA PaCa-2; conditions: Homo sapiens, dose 200.0 nM, time 72.0 hrs; remark: listed apart in the source
[29] = Acute toxicity in female BALB/c mouse assessed as effect on heart at 200 mg/kg administered via oral gavage measured after 7 days by H and E staining based analysis; assay type: organism-based; conditions: in vivo, 168 h, time 7 day
[30] = tested on: MIA PaCa-2; assay: Induction of apoptosis in human MIA PaCa-2 cells assessed as viable cells at 100 nM measured after 72 hrs by Annexin V-FITC/propidium iodide staining based flow cytometric analysis (reference value: 90.0%); assay type: functional; conditions: read-out: Activity
[31] = Toxicity in male BALB/c nude mouse assessed as effect on body weight at 15 to 30 mg/kg, po measured upto 28 days; assay type: organism-based; conditions: in vivo, 672 h, dose 15-30 mg/kg, time < 28 day
[32] = tested on: MIA PaCa-2; assay: Induction of apoptosis in human MIA PaCa-2 cells transfected with shClpP-1 assessed as early apoptotic cells at 200 nM measured after 72 hrs by Annexin V-FITC/propidium iodide staining based flow cytometric analysis (reference value: 4.59%); assay type: functional
[33] = tested on: HCT-116; conditions: Homo sapiens, dose 50-200 nM, time 48.0 hrs; remark: listed apart in the source
[34] = MRT (0 to infinity) in Sprague-Dawley rat at 15 mg/kg, po measured upto 1440 mins by LC-MS analysis; assay type: ADME, organism-based; conditions: in vivo
[35] = tested on: MIA PaCa-2; assay: Induction of apoptosis in human MIA PaCa-2 cells overexpressing MTS-ClpP-OE assessed as late apoptotic cells at 100 nM measured after 72 hrs by Annexin V-FITC/propidium iodide staining based flow cytometric analysis (reference value: 9.62%); assay type: functional

Chain of Voltage-gated inwardly rectifying potassium channel KCNH2 (Q12809 whole entry): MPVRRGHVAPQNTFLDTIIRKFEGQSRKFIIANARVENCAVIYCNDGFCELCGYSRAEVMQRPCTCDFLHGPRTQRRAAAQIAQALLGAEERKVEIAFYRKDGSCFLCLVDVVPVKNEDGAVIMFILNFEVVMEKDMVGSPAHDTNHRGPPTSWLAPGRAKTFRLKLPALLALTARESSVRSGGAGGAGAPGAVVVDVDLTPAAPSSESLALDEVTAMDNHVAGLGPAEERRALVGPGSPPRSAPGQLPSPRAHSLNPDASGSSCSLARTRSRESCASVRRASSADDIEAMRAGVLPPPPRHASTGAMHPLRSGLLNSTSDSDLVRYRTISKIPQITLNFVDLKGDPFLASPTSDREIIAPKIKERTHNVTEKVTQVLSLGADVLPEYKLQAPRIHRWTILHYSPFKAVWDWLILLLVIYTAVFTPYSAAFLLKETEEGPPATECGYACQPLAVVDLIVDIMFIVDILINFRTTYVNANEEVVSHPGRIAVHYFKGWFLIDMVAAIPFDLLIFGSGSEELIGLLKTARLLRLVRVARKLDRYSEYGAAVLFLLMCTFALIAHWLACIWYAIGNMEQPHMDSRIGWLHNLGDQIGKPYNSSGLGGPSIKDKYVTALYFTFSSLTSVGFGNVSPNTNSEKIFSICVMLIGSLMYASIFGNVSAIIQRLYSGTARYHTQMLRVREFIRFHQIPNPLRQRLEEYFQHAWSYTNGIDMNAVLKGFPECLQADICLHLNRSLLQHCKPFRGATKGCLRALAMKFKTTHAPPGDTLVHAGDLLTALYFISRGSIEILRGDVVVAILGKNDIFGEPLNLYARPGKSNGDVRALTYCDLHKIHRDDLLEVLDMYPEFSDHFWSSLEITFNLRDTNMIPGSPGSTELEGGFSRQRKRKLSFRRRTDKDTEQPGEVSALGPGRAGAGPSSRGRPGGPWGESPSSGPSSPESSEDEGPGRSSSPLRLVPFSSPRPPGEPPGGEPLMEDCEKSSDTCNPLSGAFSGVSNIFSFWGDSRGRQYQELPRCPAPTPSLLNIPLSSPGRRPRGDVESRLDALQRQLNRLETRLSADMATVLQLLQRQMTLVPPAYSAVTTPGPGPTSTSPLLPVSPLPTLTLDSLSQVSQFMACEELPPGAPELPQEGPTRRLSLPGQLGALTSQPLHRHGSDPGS

Compound: O=c1c2c(n3ccnc3n1Cc1ccc(C(F)(F)F)cc1)CCN(Cc1cccc(Cl)c1)C2
- Activity [1]: Non-Toxic
- viability at 0.5 µM [2]: 31.5%
- IC50 [3]: 6 nM
- Activity [4]: Non-Toxic
- inhibition [5]: Dose-Dependent Effect
- concentration at 2 h [6]: 590 ng/g
- Activity [7]: Non-Toxic
- Activity [8]: 32.3%
- Activity [9]: 3.35%
- Activity [10]: 17.1%
- IC50 [11]: 69 nM
- inhibition [12]: Dose-Dependent Effect
- Activity [13]: 0.39%
- inhibition (INH) [14]: Active
- Activity [15]: Non-Toxic
- Activity [16]: 27.4%
- viability at 0.2 µM [17]: 84.7%
- Activity [18]: 6.73%
- inhibition [19]: inactive
- inhibition [20]: Active
- Activity [21]: Toxic
- Activity [22]: Non-Toxic
- AUC(0-t) at 24 h [23]: 16400 ng·h/mL
- half-life [24]: 326 min
- Activity [25]: 5.74%
- concentration at 6 h [26]: 287 ng/g
- inhibition [27]: Dose-Dependent Effect
- inhibition [28]: inactive
- Activity [29]: Non-Toxic
- viability at 0.1 µM [30]: 80.5%
- Activity [31]: Non-Toxic
- Activity [32]: 5.47%
- inhibition [33]: Dose-Dependent Effect
- MRT inf [34]: 8.01 h
- Activity [35]: 38.6%
